Measurements reported in ChEMBL document CHEMBL1138864, “Synthesis of novel caspase inhibitors for characterization of the active caspase proteome in vitro and in vivo” (J Med Chem, 2006).

How the values were obtained:
Caspase-1 = target: T1, Caspase-1 (Homo sapiens, UniProt P29466); experiment: Inhibition of human caspase 1
T1 sequence (P29466 whole entry): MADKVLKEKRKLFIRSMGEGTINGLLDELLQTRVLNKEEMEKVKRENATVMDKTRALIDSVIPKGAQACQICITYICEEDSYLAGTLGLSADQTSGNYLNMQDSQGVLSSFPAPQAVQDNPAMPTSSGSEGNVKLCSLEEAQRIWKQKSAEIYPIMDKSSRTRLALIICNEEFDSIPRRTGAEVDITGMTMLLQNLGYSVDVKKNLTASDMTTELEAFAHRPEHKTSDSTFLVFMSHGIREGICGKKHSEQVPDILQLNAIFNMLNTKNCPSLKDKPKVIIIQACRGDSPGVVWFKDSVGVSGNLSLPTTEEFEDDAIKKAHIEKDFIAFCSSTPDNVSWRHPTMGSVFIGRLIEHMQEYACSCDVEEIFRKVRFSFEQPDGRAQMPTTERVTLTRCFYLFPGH

Caspase-7 = target: T2, Caspase-7 (Homo sapiens, UniProt P55210); experiment: Inhibition of human caspase 7
T2 sequence (P55210 whole entry): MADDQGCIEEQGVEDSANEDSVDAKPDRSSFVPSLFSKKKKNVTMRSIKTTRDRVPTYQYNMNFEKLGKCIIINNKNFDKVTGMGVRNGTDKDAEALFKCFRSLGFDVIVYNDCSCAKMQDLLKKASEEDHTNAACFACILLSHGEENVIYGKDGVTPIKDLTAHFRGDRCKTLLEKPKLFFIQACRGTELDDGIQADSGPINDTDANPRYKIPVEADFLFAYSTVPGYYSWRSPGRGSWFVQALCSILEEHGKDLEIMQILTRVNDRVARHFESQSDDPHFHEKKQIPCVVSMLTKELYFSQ

Caspase-2 = target: T3, Caspase-2 (Homo sapiens, UniProt P42575); experiment: Inhibition of human caspase 2
T3 sequence (P42575 whole entry): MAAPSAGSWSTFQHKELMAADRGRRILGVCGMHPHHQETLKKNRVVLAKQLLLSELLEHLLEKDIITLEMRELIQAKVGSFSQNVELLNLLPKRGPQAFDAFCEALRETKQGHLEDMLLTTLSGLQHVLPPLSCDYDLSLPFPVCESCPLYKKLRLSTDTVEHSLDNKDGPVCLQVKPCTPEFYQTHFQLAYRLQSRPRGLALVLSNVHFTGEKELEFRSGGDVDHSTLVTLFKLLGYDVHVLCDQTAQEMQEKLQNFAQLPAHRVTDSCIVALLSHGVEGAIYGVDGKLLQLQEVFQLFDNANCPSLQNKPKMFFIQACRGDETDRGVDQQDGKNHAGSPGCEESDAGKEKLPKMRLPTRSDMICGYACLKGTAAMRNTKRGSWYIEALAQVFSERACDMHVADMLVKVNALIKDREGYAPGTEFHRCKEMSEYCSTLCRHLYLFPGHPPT

Caspase-3 = target: T4, Caspase-3 (Homo sapiens, UniProt P42574); experiment: Inhibition of human caspase 3
T4 sequence (P42574 whole entry): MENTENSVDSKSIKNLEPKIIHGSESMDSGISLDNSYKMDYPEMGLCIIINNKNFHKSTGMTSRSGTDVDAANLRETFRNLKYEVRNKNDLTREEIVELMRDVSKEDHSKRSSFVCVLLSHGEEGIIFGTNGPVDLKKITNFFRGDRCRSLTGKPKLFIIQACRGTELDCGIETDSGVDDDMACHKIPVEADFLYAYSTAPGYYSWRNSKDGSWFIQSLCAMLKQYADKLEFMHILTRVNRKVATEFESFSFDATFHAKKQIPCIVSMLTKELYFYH

Caspase-6 = target: T5, Caspase-6 (Homo sapiens, UniProt P55212); experiment: Inhibition of human caspase 6
T5 sequence (P55212 whole entry): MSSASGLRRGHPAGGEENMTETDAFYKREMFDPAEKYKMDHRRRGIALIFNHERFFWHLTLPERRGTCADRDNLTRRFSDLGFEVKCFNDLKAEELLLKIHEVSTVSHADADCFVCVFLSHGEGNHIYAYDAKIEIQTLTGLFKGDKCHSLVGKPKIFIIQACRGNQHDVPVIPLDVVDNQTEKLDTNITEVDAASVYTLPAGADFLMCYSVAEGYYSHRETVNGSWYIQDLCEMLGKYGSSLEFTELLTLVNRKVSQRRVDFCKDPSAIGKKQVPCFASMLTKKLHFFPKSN

Caspase-8 = Caspase-8 (Homo sapiens, UniProt Q14790); experiment: Inhibition of human caspase 8
Chain of Caspase-8 (Q14790 217-374 limits assumed): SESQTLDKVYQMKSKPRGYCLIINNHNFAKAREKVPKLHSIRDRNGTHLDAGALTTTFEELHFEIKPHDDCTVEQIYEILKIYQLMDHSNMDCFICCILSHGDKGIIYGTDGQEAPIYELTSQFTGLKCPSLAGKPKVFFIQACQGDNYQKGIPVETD
Chain of Caspase-8 (Q14790 385-479 limits assumed): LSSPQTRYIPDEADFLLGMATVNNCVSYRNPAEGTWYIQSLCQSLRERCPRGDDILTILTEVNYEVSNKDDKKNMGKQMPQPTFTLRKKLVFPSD

Ki (Caspase-1): 0.0063 µM
Ki (Caspase-7): 1.2 µM
Ki (Caspase-2): 29 µM
Ki (Caspase-3): 0.84 µM
Ki (Caspase-6): 550 µM
Ki (Caspase-8): 0.54 µM
SMILES: Cc1cccc(C)c1C(=O)OCC(=O)[C@H](CC(=O)O)NC(=O)[C@H](CCCCNC(=O)CCCCCNC(=O)CCCCC1SC[C@@H]2NC(=O)N[C@H]12)NC(=O)[C@H](CCC(=O)O)NC(=O)OCc1ccccc1 (stereo partly specified)
